The results in this text go back to ChEMBL document CHEMBL5528039, “Discovery of a Macrocyclic Influenza Cap-Dependent Endonuclease Inhibitor” (J Med Chem, 2024).

Assay [1] deals with Influenza A virus. As to the kind of experiment: Selectivity ratio of EC50 for antiviral activity against Influenza A virus A/PR/8/34 PA-I38T infected in MDCK cells to EC50 for antiviral activity against Influenza A virus A/PR/8/34 (H1N1) infected in MDCK cells. The format is functional.
Assay [2] has as its system Influenza A virus. As to the kind of experiment: Antiviral activity against Influenza A virus A/PR/8/34 PA-I38T infected in MDCK cells assessed as reduction in virus-induced cytopathic effect incubated for 5 days by CCK8 based microplate spectrophotometric analysis. The format is functional, organism-based. The following applies: for EC50: mdck; for EC90: time 5 day. Background: Damage to the host cells serves as the signal in cytopathic effect assays.

Assay [3] concerns Influenza A virus. As to the kind of experiment: Antiviral activity against baloxavir-resistant Influenza A virus A/PR/8/34 infected in MDCK cells assessed as reduction in virus-induced cytopathic effect incubated for 5 days by CCK8 based microplate spectrophotometric analysis. In kind it is functional, organism-based. The following applies: for EC50: mdck; for EC90: time 5 day.

In assay [4] the test system is Influenza A virus. As to the kind of experiment: Selectivity ratio of EC50 for antiviral activity against baloxavir-resistant Influenza A virus A/PR/8/34 infected in MDCK cells to EC50 for antiviral activity against Influenza A virus A/PR/8/34 (H1N1) infected in MDCK cells. In kind it is functional.

One may read the EC50 as the concentration giving half of the maximal effect. For orientation: EC90 means the concentration at which the effect reaches the 90% level. Regarding `CN1C(=O)c2c(O)c(=O)ccn2N2[C@H](c3ccccc3)c3ccc(F)c(F)c3OCC[C@@H]12` (racemic), the “Ratio EC50” value in the assay with Influenza A virus [1] is on record as 10. Also, in the assay on Influenza A virus [2], the EC50 was 512 nM and the EC90 stood at 795 nM.

Regarding `CN1C(=O)c2c(O)c(=O)ccn2N2[C@H](c3ccccc3)c3cc(F)c(F)cc3OCC[C@@H]12`, the “Ratio EC50” value with Influenza A virus [1] and in the assay with Influenza A virus [4] was 9.2 throughout. In addition, the EC50 in the assay with Influenza A virus [3] and in the assay with Influenza A virus [2] was 66 nM each time. Also, the EC90 in the assay with Influenza A virus [3] and in the assay with Influenza A virus [2] was 113 nM throughout.

Regarding `O=C1c2c(O)c(=O)ccn2N([C@@H]2c3ccccc3SCc3c2ccc(F)c3F)[C@@H]2COCCN12` [BALOXAVIR], the “Ratio EC50” value in the assay on Influenza A virus [1] and in the assay on Influenza A virus [4] was 68 in each case. Further, the EC50 in the assay on Influenza A virus [3] and in the assay with Influenza A virus [2] was 142 nM in each case. Moreover, the EC90 in the assay with Influenza A virus [3] and in the assay with Influenza A virus [2] was 232 nM each time.

Regarding `CN1C(=O)c2c(O)c(=O)ccn2N2[C@H](c3ccc(F)c(F)c3)c3cc(F)c(F)cc3OCC[C@@H]12`, the “Ratio EC50” value in the assay on Influenza A virus [1] was 8.4. In addition, in the assay on Influenza A virus [2], the EC50 was determined as 211 nM and the EC90 turned out to be 393 nM.

Turning to `CC(C)N1C(=O)c2c(O)c(=O)ccn2N2[C@H](c3ccccc3)c3ccccc3OCC[C@@H]12` (racemic), the “Ratio EC50” value in the assay on Influenza A virus [1] is 8.2. In the assay on Influenza A virus [2], the EC50 worked out at 435 nM and the EC90 amounted to 675 nM.

As for `CN1C(=O)c2c(O)c(=O)ccn2N2[C@H](c3ccccc3)c3ccccc3OCC[C@@H]12`, in the assay on Influenza A virus [1], the “Ratio EC50” value is 15. In the assay on Influenza A virus [2], the EC50 is 214 nM and the EC90 came to 336 nM.

For `CN1C(=O)c2c(O)c(=O)ccn2N2[C@H](c3ccccc3Br)c3cc(F)c(F)cc3OCC[C@@H]12` (racemic), the “Ratio EC50” value in the assay with Influenza A virus [1] is 15. In the assay on Influenza A virus [2], the EC50 is 166 nM and the concentration for an effect of 90% (EC90) is 344 nM.

Regarding `CN1C(=O)c2c(O)c(=O)ccn2N2[C@H](c3ccccc3F)c3cc(F)c(F)cc3OCC[C@@H]12`, in the assay with Influenza A virus [1], the “Ratio EC50” value worked out at 7.2. In the assay with Influenza A virus [2], the 50% effective concentration (EC50) amounted to 79 nM and the EC90 was 123 nM.

Regarding `CN1C(=O)c2c(O)c(=O)ccn2N2[C@H](c3ccc(F)cc3)c3cc(F)c(F)cc3OCC[C@@H]12`, the “Ratio EC50” value with Influenza A virus [1] was 14. Further, in the assay with Influenza A virus [2], the EC50 worked out at 193 nM and the EC90 was 370 nM.
